Experimental data as given in patent US20250205286A1, “COMPOSITIONS, REAGENTS, AND METHODS FOR TREATING PITT-HOPKINS SYNDROME” (Vitro Biopharma, Inc., priority 2022, published 2025).

System: Hsp70 secretion from UC-MSCs
Assay: Hsp70 secretion from cultured UC-MSCs exposed to LiCl (immunoassay)
Type: cell-based, human
Settings: 200 micromolar LiCl; medium collected 96 hours later; p<0.05
Experimental: FIG. 7 is a graph showing the secretion of heat shock protein 70 (Hsp70) from cultured UC-MSCs (e.g., ALLORX STEM CELLS®) and the effects of increasing concentrations of lithium chloride (LiCl) on Hsp70 secretion.
UC-MSCs were plated at 5,000 cells/cm^2 in T-25 flasks and cultured until confluence was 80-90%. The cells were then exposed to the LiCl concentrations shown on the x axis and the medium was collected 96 hours later and assayed by immunoassay for Hsp70. […] Since Hsp70 mediates cellular protection as a chaperone molecule and through antiapoptotic mechanisms (refs), its enhanced secretion from MSCs (possible through inclusion in exosomes Ref) may reflect mechanisms of stem cell activation by GSK-3p inhibition in conjunction with HDAC inhibition (e.g., see U.S. application Ser. No. 17/239,513 which is incorporated by reference). This effect is a possible mode of action of the therapy proposed by the present disclosure.

[Cl-].[Li+] [LiCl, lithium chloride]
secretion of Hsp70: significant increased secretion
